# Source: article PMC12523843, “Kuwanon A Targeted YWHAB in Hepatocellular Carcinoma Cells to Inhibit the Raf/MEK/ERK Signaling Pathway” (Cells, 2025)
# Key:
# [1] = test system: N-cadherin and E-cadherin; assay: Western blot of EMT markers; format: cell-based, human; conditions: 48 h
# Protocol: Cells were harvested using a cell scrape and washed three times with PBS buffer, then lysed on ice in RIPA lysis buffer (Beyotime, Shanghai, China). Protein concentration was determined using a BCA protein assay kit (Beyotime, Shanghai, China). Subsequently, 60 µg of protein was mixed with 5× loading buffer and heated in a 100 °C water bath for 15 min. The samples were subjected to SDS-PAGE electrophoresis, followed by transfer onto a PVDF membrane (Millipore, Darmstadt, Germany). The membrane was blocked with 5% BSA for 2 h at room temperature and incubated sequentially with primary and HRP-conjugated secondary antibodies. Finally, signal detection was performed using an ECL detection system (Clinx, Shanghai, China).
# [2] = test system: MHCC97 H cells injected into the liver; assay: Orthotopic hepatocellular carcinoma xenograft survival; format: in vivo, BALB/c-nu mice; conditions: 30 mg/kg intraperitoneal, every two days, 45 days
# From the text: Thirty-six female BALB/c-nu mice, four weeks old (supplied by Slike Jingda Laboratory Animal Co., Ltd., Changsha, China; Animal qualification number: SCXK-2019-0004), were housed in an SPF room. […] Therefore, female mice were selected for this study; 12 mice were used to establish the hepatocellular carcinoma xenografts. MHCC97 H cells (1 × 10^5 cells) were slowly injected into the left lobe of the mouse liver after being anesthetized with isoflurane. Three days later, the mice received intraperitoneal injections of KA (30 mg/kg) every two days for 45 days. Control mice were administered DMSO injections. Recorded the survival status of the animals. Prior to liver collection, the mice were anesthetized with isoflurane to minimize pain and euthanized by cervical dislocation. Ethics approval serial number: IACUC-20240613-03. Animal experiments were conducted in accordance with the Guide for the Care and Use of Laboratory Animals (Ministry of Science and Technology of China, 2006).
# YWHAB = molecular target: T1, YWHAB (Homo sapiens, UniProt P31946); assay: Cell thermal shift assay (CETSA); format: binding; set-up: endogenous in cells; host or cells: MHCC97 H and SMMC 7721; conditions: high concentration of KA, 3 h, MHCC97 H and SMMC 7721, 44–65 °C
# T1 sequence (P31946 1-246): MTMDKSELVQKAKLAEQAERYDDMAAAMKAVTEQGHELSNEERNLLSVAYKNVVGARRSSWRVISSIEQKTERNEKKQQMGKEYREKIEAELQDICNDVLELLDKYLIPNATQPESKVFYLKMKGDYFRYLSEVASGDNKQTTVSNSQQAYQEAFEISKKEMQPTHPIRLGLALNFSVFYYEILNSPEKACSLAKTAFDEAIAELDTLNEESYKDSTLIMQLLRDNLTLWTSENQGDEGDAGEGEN
# Protocol: The cells were treated with a high concentration (3–4 times the IC50) of the drug for 2–4 h before being digested with trypsin. Then the cells were washed 1–2 times with PBS. Resuspend the cells in […] of PBS. Subsequently, divided them into eight portions, each containing 50 µL. Set the appropriate temperature range and gradient. In our research, the range of 44–65 °C was used. Each portion of cells was treated at the specified temperature for 3–5 min. Then, the cells were repeatedly frozen and thawed using liquid nitrogen. After high-speed centrifugation (20,000× g, 20 min), we took the top layer of supernatant. After adding an appropriate amount of loading buffer, we conducted the Western Blot assay. Quantitative analysis was used to determine whether the compound has enhanced the thermal stability of the target protein.
# [3] = Renal and liver function tests in treated mice; format: in vivo, BALB/c-nu mice; conditions: KA-treated mice compared to DMSO controls
# [4] = test system: HCC cells (MHCC97 H and SMMC 7721); assay: Cell wound healing assay; format: cell-based, human; conditions: 48 h, vs DMSO
# Protocol: We seeded the cells in 6-well plates and allowed them to adhere and grow to full confluence. Then, we gently scratched the cell monolayer in a straight line using a sterile pipette tip. We rinsed the wells with PBS to remove detached cells and debris. We captured bright-field images of the scratched area at baseline (0 h). We replaced the medium with DMEM containing KA or DMSO and continued incubation. We re-imaged the same wound areas at 24 h and 48 h post-scratch. We quantified cell migration by measuring wound closure (%) over time using image analysis software.
# [5] = test system: nuclear translocation of ERK; assay: ERK nuclear translocation (nuclear/cytoplasmic extraction, immunofluorescence); format: cell-based, human; conditions: 10 μM, 48 h, confocal microscopy
# Protocol: After treating HCC cells with KA or DMSO, the cells were collected by cell scraping. Adding an appropriate amount of PMSF and reagent A (Nuclear and Cytoplasmic Protein Extraction Kit, Beyotime, Shanghai, China). Vortexed and then ice bathed for 15 min. Adding the reagent B provided in the kit mentioned before. Then vortexed and ice bathed for 1 min. Vortexed again. Centrifuged at 14,000× g for 5 min. The supernatant was cytoplasmic protein. Adding a certain amount of nuclear protein extraction reagent to the precipitate. Multiple vortices within 30 min. Centrifuged at 14,000× g for 10 min. The obtained supernatant was the nuclear protein.
# [6] = test system: HCC cells (MHCC97 H and SMMC 7721); assay: Flow cytometry cell cycle analysis, result stated for HCC cells; format: cell-based, human; conditions: 48 h
# Protocol: Cells were digested, centrifuged, and resuspended in PBS buffer following 48 h of treatment with either KA or DMSO. Prior to cell cycle analysis, the cells were fixed in 75% ethanol for a minimum of 24 h, followed by labeling with PI and RNase (Beyotime, Shanghai, China). Subsequently, the cells were analyzed using flow cytometry. Each group consisted of three replicates.
# YWHAB dimer = molecular target: T2, YWHAB dimer (Homo sapiens, UniProt P31946); assay: Co-immunoprecipitation of MYC-YWHAB and FLAG-YWHAB in HEK 293T; format: cell-based; set-up: host or cells: HEK 293T; conditions: 25 μM and 30 μM, HEK 293T overexpressing MYC-YWHAB and FLAG-YWHAB
# T2 sequence (P31946 1-246): T1 sequence (P31946 1-246)
# [7] = test system: HCC cells (MHCC97 H and SMMC 7721); assay: Transwell migration (without Matrix-Gel) and invasion (with Matrix-Gel) assay; format: cell-based, human
# Protocol: The Transwell assay measured the migration and invasion of cells by calculating the number of cells that passed through the material. Prior to the Transwell migration assay, cells were serum-starved in FBS-free culture medium for 24 h. The cells were then detached using trypsin, washed 1–2 times with PBS, and resuspended in DMEM. Approximately 50,000–100,000 cells were seeded into the upper chamber of the Transwell insert. The lower chamber was filled with 600 μL of complete medium containing the test compound. […] After incubation, the migrated cells on the lower membrane surface were fixed with 4% paraformaldehyde (PFA) and stained with 0.1% crystal violet. Non-migrated cells remaining in the upper chamber were carefully removed with a cotton swab. Finally, the stained cells were visualized under a microscope. If matrix gel was needed, it should be added according to the instructions (Beyotime, Shanghai, China) before the cells were seeded.
structure (smiles),measurement,setting,value
"CC(C)=CCc1c(-c2ccc(O)c3c2OC(C)(C)C=C3)oc2cc(O)cc(O)c2c1=O [KA, Kuwanon A]",E-cadherin level (Western blot),[1]; MHCC97 H and SMMC 7721,upregulation of E-cadherin
same,N-cadherin level (Western blot),[1]; MHCC97 H and SMMC 7721,downregulation of N-cadherin
same,N-cadherin/E-cadherin ratio under YWHAB overexpression,"[1]; YWHAB-overexpressing HCC cells, KA 15 μM",minimal changes
same,survival time,[2],significantly extended
same,thermal stability of YWHAB (CETSA),YWHAB,increased thermal stability of YWHAB
same,"renal and liver function tests (ALB, total protein, GOT/AST, GPT/ALT)",[3],no significant changes
same,wound healing (cell scratch assay),[4],significant reduction in wound healing
same,nuclear translocation of ERK,[5],inhibited the nuclear translocation of ERK
same,cell cycle arrest (flow cytometry),[6]; concentration-dependent,significant G0/G1 phase arrest
same,G0/G1 phase arrest under YWHAB overexpression,"[6]; YWHAB-overexpressing cells, KA 15 μM",less KA-induced G0/G1 phase arrest
same,dimerization levels of YWHAB (co-immunoprecipitation),YWHAB dimer,reduced dimerization levels of YWHAB
same,migration/invasion under YWHAB overexpression (wound healing and Transwell),"[7]; YWHAB-overexpressing HCC cells compared to normal tumor cells, KA 15 μM, 48 h",less effect of KA on the migration/invasion
same,invasive capacity of HCC cells (Transwell),[7]; with Matrix-Gel,inhibited the invasive capacity of HCC cells
same,number of HCC cells migrating through the polycarbonate membrane (Transwell),[7]; without Matrix-Gel,significant decrease in the number of HCC cells migrating
